Data published in patent US20220153732A1, “PROTEIN SECRETION INHIBITORS” (KEZAR LIFE SCIENCES, priority 2019, published 2022).
Where two headings read alike, the source gives them in different places.

How the values were obtained:
Type in all cases: cell-based
[1] = system: human multiple myeloma cell line NCI-H929; assay: H929 Cell Viability Assay; conditions: 48 hr, NCI-H929 cells, Celltiter-Glo, read-out: 48 hr H929 Viability Celltiter-Glo: Mean EC50
Description: Plates were incubated at 37° C., 5% CO2 for 48 hours. After 48 hours, Celltiter-Glo® (Promega) was added to each well and luciferase signal was quantified using Tecan Infinite M1000 Pro for cell viability determination.
For chemical structures that include one or more stereoisomers, but are illustrated without indicating stereochemistry, the assay data refers to a mixture of stereoisomers.

[2] = system: IL-2-FL/Gaussia Luciferase; assay: Dox Induced IL2-FL-Gluc Assay
In short: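 Compounds were added together with doxycycline in DMSO/media and incubated at 37° C., 5% CO2. The cells were a stably selected line carrying IL-2-FL/Gaussia luciferase under T-REx inducible control. Structures drawn without stereochemistry were tested as stereoisomer mixtures.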

[3] = system: human multiple myeloma cell line U266B1; assay: U266 Cell Viability Assay; conditions: U-266, 48 hr, U266B1 cells, Celltiter-Glo, read-out: 48 hr U266 Viability Celltiter-Glo: Mean EC50
In short: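 Viability measured by CellTiter-Glo luciferase signal after 48 h compound exposure (37 °C, 5% CO2) of U266B1 cells in 384-well format. Where stereochemistry is not shown, data refer to the stereoisomer mixture.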

[4] = system: HER3-ss+4aa/Gaussia Luciferase; assay: Dox-Induced Her3-ss-Gluc Assay
In short: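 Compounds, diluted in DMSO/media containing doxycycline, were incubated at 37° C., 5% CO2 with cells seeded one day earlier. The cells stably express HER3-ss+4aa/Gaussia luciferase under T-REx control. Where no stereochemistry is shown, data refer to the mixture of stereoisomers.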

[5] = system: PD1-ss+10aa/Gaussia Luciferase; assay: Dox-Induced PD1-ss-Gluc Assay
In short: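 Compounds, diluted in DMSO/media with doxycycline, were added to cells plated a day earlier and kept at 37° C under 5% CO2. The cells stably express a Gaussia luciferase construct fused to PD1-ss+10aa, induced via the T-REx system. Unassigned stereochemistry means mixture data.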

[6] = system: TNFα-FL/Gaussia Luciferase; assay: Dox Induced TNFα-FL-Gluc Assay
In short: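 Compounds were added in doxycycline-containing DMSO/media to cells plated the previous day and incubated at 37° C under 5% CO2. These cells stably express a TNFα-FL/Gaussia luciferase cDNA whose expression is under T-REx (Dox-inducible) control, selected with Hygromycin and Blasticidin.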

[7] = 24 hr doxycycline induction, 293FRT/TO cells, Gaussia luciferase signal; read-out: 24 hr Dox Inducible IL2FLGIuc 293FRT/TO: Mean IC50
[8] = 24 hr doxycycline induction, 293FRT/TO cells, Gaussia luciferase signal; read-out: 24 hr Dox Inducible Her3(ss + 4)Gluc 293FRT/TO: Mean IC50
[9] = 24 hr doxycycline induction, 293FRT/TO cells, Gaussia luciferase signal; read-out: 24 hr Dox Inducible PD1ssGluc 293FRT/TO: Mean IC50
[10] = 24 hr doxycycline induction, 293FRT/TO cells, Gaussia luciferase signal; read-out: 24 hr Dox Inducible TNFaFLGluc 293FRT/TO: Mean IC50
[11] = 24 hr, doxycycline-induced, 293FRT/TO cells; read-out: 24 hr Dox Inducible IL2FLGIuc 293FRT/TO: Mean IC50
[12] = 24 hr, doxycycline-induced, 293FRT/TO cells; read-out: 24 hr Dox Inducible Her3(ss + 4)Gluc 293FRT/TO: Mean IC50
[13] = 24 hr, doxycycline-induced, 293FRT/TO cells; read-out: 24 hr Dox Inducible PD1ssGluc 293FRT/TO: Mean IC50
[14] = 24 hr, doxycycline-induced, 293FRT/TO cells; read-out: 24 hr Dox Inducible TNFaFLGluc 293FRT/TO: Mean IC50

Compound | EC50 [1] [µM] | IC50 [2, 7] [nM] | EC50 [3] [µM] | IC50 [4, 8] [nM] | IC50 [5, 9] [nM] | IC50 [6, 10] [µM] | IC50 [2, 11] [nM] | IC50 [4, 12] [nM] | IC50 [5, 13] [nM] | IC50 [6, 14] [µM] | IC50 ([2]; read-out: 24 hr Dox Inducible IL2FLGIuc 293FRT/TO: Mean IC50; 24 hr, doxycycline-induced, 293FRT/TO cells) [nM] | IC50 ([4]; read-out: 24 hr Dox Inducible Her3(ss + 4)Gluc 293FRT/TO: Mean IC50; 24 hr, doxycycline-induced, 293FRT/TO cells) [nM] | IC50 ([5]; read-out: 24 hr Dox Inducible PD1ssGluc 293FRT/TO: Mean IC50; 24 hr, doxycycline-induced, 293FRT/TO cells) [nM] | IC50 ([6]; read-out: 24 hr Dox Inducible TNFaFLGluc 293FRT/TO: Mean IC50; 24 hr, doxycycline-induced, 293FRT/TO cells) [µM]
O=C(Nc1nc(C2CCN(c3ccccc3)CC2)cs1)c1cccn1Cc1ccncc1 [Compound A282] | 7.08 | 1500 | 12.5 | 864 | 324 | 4.66 |  |  |  |  |  |  |  | 
O=C(Nc1nc(C2CCc3ccccc3O2)cs1)c1cccn1Cc1ccncc1 (stereo not drawn) [Compound A283] | 23 | 3860 | > 25 | 3070 | 1350 | 7.18 |  |  |  |  |  |  |  | 
O=C(Nc1nc(C2Cc3ccccc3C2)cs1)c1cccn1CCCc1ccncc1 [Compound A284] | 4.92 | 2320 | 6.1 | 1240 | 767 | 4.07 |  |  |  |  |  |  |  | 
O=C(Nc1nc(C2CCN(c3ccccc3)CC2)cs1)c1cccn1CCCc1ccncc1 [Compound A285] | 17.8 | 2860 | 16.7 | 1840 | 1230 | 16.1 |  |  |  |  |  |  |  | 
O=C(Nc1nc(C2CCc3ccccc3O2)cs1)c1cccn1CCCc1ccncc1 (stereo not drawn) [Compound A286] | 9.57 | 3930 | 15.7 | 2420 | 1280 | 6.17 |  |  |  |  |  |  |  | 
O=C(Nc1nc(C2CC(c3ccccc3)C2)cs1)c1cccn1CCCc1ccncc1 (stereo not drawn) [Compound A287] | 5.06 | 376 | > 25 | 181 | 88 | 1.16 |  |  |  |  |  |  |  | 
O=C(Nc1nc(C2Cc3ccccc3O2)cs1)c1cccn1Cc1ccncc1 (stereo not drawn) [Compound A288] | 23.9 | 1540 | > 25 | 1260 | 440 | 3.03 |  |  |  |  |  |  |  | 
O=C(Nc1nc([C@@H]2CCN(c3ccccc3)C2)cs1)c1cccn1Cc1ccncc1 [Compound A289] | 22 | 856 | > 25 | 512 | 201 | 3.61 |  |  |  |  |  |  |  | 
O=C(Nc1nc([C@H]2CCN(c3ccccc3)C2)cs1)c1cccn1Cc1ccncc1 [Compound A290] | 15.2 | 1400 | 20.8 | 648 | 261 | 4.02 |  |  |  |  |  |  |  | 
O=C(Nc1nc([C@@H]2CCN(Cc3ccccc3)C2)cs1)c1cccn1Cc1ccncc1 [Compound A291] | > 25 | 6720 | 22.5 | 5280 | 918 | > 25 |  |  |  |  |  |  |  | 
CC(C)(/C=C/c1ccccc1)c1csc(NC(=O)c2cccn2Cc2ccncc2)n1 [Compound A293, N-(4-(2-methyl-4-phenylbut-3-en-2-yl)thiazol-2-yl)-1-(pyridin-4-ylmethyl)-1H-pyrrole-2-carboxamide] | 11.4 |  | > 25 |  |  |  | 619 | 632 | 367 | 3.65 |  |  |  | 
O=C(Nc1nc(C2=CC(c3ccccc3)CCC2)cs1)c1cccn1Cc1ccncc1 (stereo not drawn) [Compound A294] | > 25 |  | > 25 |  |  |  | 939 | 1050 | 499 | 4.44 |  |  |  | 
O=C(Nc1nc(/C=C/c2ncc(OC3CCCC3)cc2F)cs1)c1cccn1Cc1ccncc1 [Compound A295] | 18.3 |  | 18.9 |  |  |  | 846 | 692 | 5 | 3.56 |  |  |  | 
O=C(Nc1nc(C2COc3ccccc3C2)cs1)c1cccn1Cc1ccncc1 (stereo not drawn) [Compound A296] | > 25 |  | > 25 |  |  |  | 1150 | 1210 | 655 | 10.3 |  |  |  | 
Cc1sc(NC(=O)c2cccn2Cc2ccncc2)nc1/C=C/c1ccccc1 [Compound A297] | > 25 |  | > 25 |  |  |  | 687 | 251 | 66 | 2.82 |  |  |  | 
O=C(Nc1nc([C@@H]2CCCC[C@@H]2c2ccccc2)cs1)c1cccn1Cc1ccncc1 [Compound A298] | 13.5 |  | > 25 |  |  |  | 450 | 482 | 260 | 1.67 |  |  |  | 
COc1cnc(/C=C/c2csc(NC(=O)c3cccn3Cc3ccncc3)n2)c(F)c1 [Compound A299] | > 25 |  | > 25 |  |  |  | 219 | 214 | 7 | > 25 |  |  |  | 
O=C(Nc1nc([C@H]2CCC[C@@H]2c2ccccc2)cs1)c1cccn1Cc1ccncc1 [Compound A300, N-(4-((1S,2S)-2-phenylcyclopentyl)thiazol-2-yl)-1-(pyridin-4-ylmethyl)-1H-pyrrole-2-carboxamide] | 10.5 |  | > 25 |  |  |  | 450 | 589 | 328 | 2.42 |  |  |  | 
O=C(Nc1nc([C@H]2CCC[C@H]2c2ccccc2)cs1)c1cccn1Cc1ccncc1 [Compound A301, N-(4-((1S,2R)-2-phenylcyclopentyl)thiazol-2-yl)-1-(pyridin-4-ylmethyl)-1H-pyrrole-2-carboxamide] | 2.77 |  | > 25 |  |  |  | 64 | 54 | 43 | 0.242 |  |  |  | 
O=C(Nc1nc(C2CCN(Cc3ccccc3)CC2)cs1)c1cccn1Cc1ccncc1 [Compound A302] | > 25 |  | > 25 |  |  |  | 10600 | 6170 | 1980 | > 25 |  |  |  | 
O=C(Nc1nc(/C=C/c2ccc(OC3CC3)cc2F)cs1)c1cccn1Cc1ccncc1 [Compound A304] | 6.27 |  | 14.3 |  |  |  | 178 | 108 | 20 | 0.236 |  |  |  | 
O=C(Nc1nc(C2CCCN(c3ccccc3)C2)cs1)c1cccn1Cc1ccncc1 (stereo not drawn) [Compound A306, N-(4-(1-phenylpiperidin-3-yl)thiazol-2-yl)-1-(pyridin-4-ylmethyl)-1H-pyrrole-2-carboxamide] | 11.2 |  | > 25 |  |  |  | 489 | 495 | 184 | 1.79 |  |  |  | 
O=C(Nc1nc(/C=C/c2ncccn2)cs1)c1cccn1Cc1ccncc1 [Compound A307] | > 25 |  | > 25 |  |  |  | > 25000 | 8810 | 679 | > 25 |  |  |  | 
CC(C)(OCc1ccc(N=[N+]=[N-])cc1)c1csc(NC(=O)c2cccn2Cc2ccncc2C#N)n1 [Compound A308] | 17.2 |  | > 25 |  |  |  | 2370 | 1690 | 879 | 13.5 |  |  |  | 
COc1ccc(O[C@H]2C[C@@H](c3csc(NC(=O)c4cccn4Cc4ccncc4)n3)C2)nc1 [Compound A309] | 6.11 |  | 14.8 |  |  |  | 199 | 71 | 24 | 0.721 |  |  |  | 
O=C(Nc1nc(C2CCC(c3ccccc3)O2)cs1)c1cccn1Cc1ccncc1 (stereo not drawn) [Compound A310, N-(4-(5-phenyltetrahydrofuran-2-yl)thiazol-2-yl)-1-(pyridin-4-ylmethyl)-1H-pyrrole-2-carboxamide] | > 25 |  | > 25 |  |  |  |  |  |  |  | 6990 | 5440 | 2120 | 24.6
